Laboratory results as given in patent US11370774B2, “Substituted benzofuran, benzopyrrole, benzothiophene, and structurally related complement inhibitors” (BioCryst Pharmaceuticals, Inc., priority 2018, dated 2022).

What follows are compounds tested against Factor D (Homo sapiens (Human), UniProt P00746) (assay: Factor D esterolytic assay (Z-Lys-SBzl substrate, DTNB, 405 nm)). Conditions: Z-Lys-SBzl 1.29 mM, pH 7.5, 10% DMSO, tested a minimum of three times, read-out: Measured Ki (IC50) Value for Compounds: IC50.
Chain of Factor D (P00746 26-253): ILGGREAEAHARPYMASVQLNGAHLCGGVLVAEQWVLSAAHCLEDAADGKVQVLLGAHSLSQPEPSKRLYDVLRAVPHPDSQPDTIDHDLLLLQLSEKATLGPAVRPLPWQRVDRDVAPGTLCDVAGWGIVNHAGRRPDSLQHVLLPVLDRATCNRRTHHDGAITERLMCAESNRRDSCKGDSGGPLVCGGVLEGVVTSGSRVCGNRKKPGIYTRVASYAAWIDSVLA
Type: biochemical
Experimental: The IC50 value of a compound (i.e., the concentration of the compound that inhibits 50% of the enzymatic activity) was calculated according to the procedure reported in U.S. Pat. No. 6,653,340 B1, e.g., column 74 (incorporated by reference).
Specifically, the compounds were dissolved in a stock solution of DMSO at 10.0 or 100 mM. A portion of this stock solution was added to assay buffer in a final volume of 50 μL. Controls included buffer alone and enzyme solutions to which DMSO was added. Substrate was added to the reaction wells immediately or after incubation at room temperature. The reaction rates were measured spectrophotometrically by the generation of product at 405 nm for 600 sec. Background absorbance at 690 nm was measured and subtracted from the absorbance at 405 nm for each well.
The reaction rate for enzyme alone was compared to the rate of enzyme in the presence of inhibitor and the percent inhibition was calculated as shown below: Percent Inhibition=[Rate without inhibitor−Rate with inhibitor)/(Rate without inhibitor)]×100 Factor D Esterolytic Assay:
An established esterolytic assay for the measurement of Factor D activity and inhibition of Factor D activity was used (Kam, C. M.; McRae, B. J.; Harper, J. W.; Niemann, M. A.; Volanakis, J. E.; Powers, J. C. Human complement proteins D, C2, and B Active site mapping with peptide thioester substrates. J Biol. Chem. 1987, 262, 3444-3451). For this assay Z-Lys-SBzl, 1.29 mM (Kim, S.; Narayana, S. V. L; Volanakis, J. E. Mutational analysis of the substrate binding site of human complement Factor D. Biochemistry. 1994, 33, 14393-14399.) was used as the substrate for Factor D ([…]). Hydrolysis of this compound by Factor D liberated a free sulfhydryl group which is then reacted with 5,5′-dithiobis(2nitrobenzoic acid) producing an intense yellow color (Habeeb, A. F. S. A. Reaction of protein sulfhydryl groups with Ellman's Reagent. Methods in Enzymol. 1976, 25, 457-464). The assays were performed in 96 well microtiter plates and rates of hydrolysis were monitored at 405 nm on a Biotek Synergy H1 plate reader. Hydrolysis rates were reported as change in mOD/min. The assay was conducted in 100 mM HEPES, 500 mM NaCl, pH 7.5 containing 10% DMSO in a final volume of 50 μL per well.
An IC50, a compound concentration which inhibits 50% of the enzymatic activity, was calculated. Compounds in the examples were tested a minimum of three times.

Structure (SMILES) | IC50 [nM]
Cc1ccc(CC(=O)O)c(OCc2cc(-c3cccc(C(N)CF)c3)c3occc3c2)c1 (single isomer, unassigned; (+)) [Compound 269h, (+)-2-(2-((7-(3-(1-amino-2-fluoroethyl)phenyl)benzofuran-5-yl)methoxy)-4-methylphenyl)acetic acid] | < 1000
COCc1cc2cc(COc3ccccc3CC(=O)O)cc(-c3cccc(C(N)CF)c3)c2o1 (single isomer, unassigned; (+)) [Compound 278e, (+)-2-(2-((7-(3-(1-amino-2-fluoroethyl)phenyl)-2-(methoxymethyl)benzofuran-5-yl)methoxy)phenyl)acetic acid] | < 1000
NC(CF)c1cc(-c2cc(COc3ccccc3CC(=O)O)cc3ccoc23)ccn1 (single isomer, unassigned; (+)) [Compound 327d, (+)-2-(2-((7-(2-(1-amino-2-fluoroethyl)pyridin-4-yl)benzofuran-5-yl)methoxy)phenyl)acetic acid] | < 1000
NC(CF)c1cccc(-c2cc(COc3ccccc3CC(=O)O)cc3ccoc23)c1F (single isomer, unassigned; (+)) [Compound 402f, (+)-2-(2-((7-(3-(1-amino-2-fluoroethyl)-2-fluorophenyl)benzofuran-5-yl)methoxy)phenyl)acetic acid] | < 1000
NCc1ccc(CC(=O)O)c(OCc2cc(-c3cccc(C(N)CF)c3)c3occc3c2)c1 (single isomer, unassigned; (+)) [Compound 410d, (+)-2-(2-((7-(3-(1-amino-2-fluoroethyl)phenyl)benzofuran-5-yl)methoxy)-4-(aminomethyl)phenyl)acetic acid] | < 1000
N#Cc1ccc(CC(=O)O)c(OCc2cc(-c3cccc(C(N)CF)c3)c3occc3c2)c1 (single isomer, unassigned; (+)) [Compound 412b, (+)-2-(2-((7-(3-(1-amino-2-fluoroethyl)phenyl)benzofuran-5-yl)methoxy)-4-cyanophenyl)acetic acid] | < 1000
CC(=O)Nc1ccc(CC(=O)O)c(OCc2cc(-c3cccc(C(N)CF)c3)c3occc3c2)c1 (single isomer, unassigned; (+)) [Compound 434c, (+)-2-(4-acetamido-2-((7-(3-(1-amino-2-fluoroethyl)phenyl)benzofuran-5-yl)methoxy)phenyl)acetic acid] | < 1000
NC(=O)c1ccc(CC(=O)O)c(OCc2cc(-c3cccc(C(N)CF)c3)c3occc3c2)c1 (single isomer, unassigned; (+)) [Compound 436c, (+)-2-(2-((7-(3-(1-amino-2-fluoroethyl)phenyl)benzofuran-5-yl)methoxy)-4-carbamoylphenyl)acetic acid] | < 1000
COCc1cc2cc(COc3cc(C)ccc3CC(=O)O)cc(-c3cccc(C(N)CF)c3)c2o1 (single isomer, unassigned; (+)) [Compound 455c, (+)-2-(2-((7-(3-(1-amino-2-fluoroethyl)phenyl)-2-(methoxymethyl)benzofuran-5-yl)methoxy)-4-methylphenyl)acetic acid] | < 1000
NC(CF)c1cc(-c2cc(COc3ccccc3CC(=O)O)cc3ccoc23)ccn1 (single isomer, unassigned; (-)) [Compound 326g, (−)-2-(2-((7-(2-(1-amino-2-fluoroethyl)pyridin-4-yl)benzofuran-5-yl)methoxy)phenyl)acetic acid] | 1000 to 10000
NCc1cccc(-c2nc(C(=O)Nc3ccccc3CC(=O)O)c3cccn3n2)c1 [Compound 1h, 2-(2-(2-(3-(aminomethyl)phenyl)pyrrolo[2,1-f][1,2,4]triazine-4-carboxamido)phenyl)acetic acid] | < 1000
COC(=O)Cc1ccccc1NC(=O)c1nc(-c2cccc(CN)c2)nc2c1CCC2 [Compound 2e, methyl 2-(2-(2-(3-(aminomethyl)phenyl)-6,7-dihydro-5H-cyclopenta[d]pyrimidine-4-carboxamido)phenyl)acetate] | > 10000
NCc1cccc(-c2nc3c(c(C(=O)Nc4ccccc4CC(=O)O)n2)CCC3)c1 [Compound 2f, 2-(2-(2-(3-(aminomethyl)phenyl)-6,7-dihydro-5H-cyclopenta[d]pyrimidine-4-carboxamido)phenyl)acetic acid] | < 1000
NCc1cccc(-c2nc(C(=O)Nc3ccccc3CC(=O)O)nc3[nH]ccc23)c1 [Compound 3i, 2-(2-(4-(3-(aminomethyl)phenyl)-7H-pyrrolo[2,3-d]pyrimidine-2-carboxamido)phenyl)acetic acid] | < 1000
C[C@@H](N)c1cccc(-c2nc(C(=O)Nc3ccccc3CC(=O)O)c3cccn3n2)c1 [Compound 4e, (R)-2-(2-(2-(3-(1-aminoethyl)phenyl)pyrrolo[2,1-f][1,2,4]triazine-4-carboxamido)phenyl)acetic acid] | < 1000
CCOC(=O)Cc1ccccc1NC(=O)c1nc(-c2cccc(CN)c2)c2cccn2n1 [Compound 5g, ethyl 2-(2-(4-(3-(aminomethyl)phenyl)pyrrolo[2,1-f][1,2,4]triazine-2-carboxamido)phenyl)acetate] | < 1000
NCc1cccc(-c2cc(C(=O)Nc3ccccc3CC(=O)O)c3nccn3c2)c1 [Compound 6e, 2-(2-(6-(3-(aminomethyl)phenyl)imidazo[1,2-a]pyridine-8-carboxamido)phenyl)acetic acid] | 1000 to 10000

Next, values leading:

IC50 [nM] | Structure (SMILES)
< 1000 | NCc1cccc(-c2cc(NC(=O)[C@@H]3CCC[C@H]3C(=O)NCc3cccc(Cl)c3F)cc3ccoc23)c1 (relative stereo) [Compound 217e, (trans)-N1-(7-(3-(aminomethyl)phenyl)benzofuran-5-yl)-N2-(3-chloro-2-fluorobenzyl)cyclopentane-1,2-dicarboxamide]
1000 to 10000 | NCc1cccc(-c2cc(OC[C@@H]3CCC[C@H]3C(=O)NCc3cccc(Cl)c3F)cc3ccoc23)c1 (relative stereo) [Compound 340e, (trans)-2-(((7-(3-(aminomethyl)phenyl)benzofuran-5-yl)oxy)methyl)-N-(3-chloro-2-fluorobenzyl)cyclopentanecarboxamide]
< 1000 | NCc1cccc(-c2cc(C(=O)N[C@@H]3CCC[C@H]3C(=O)NCc3cccc(Cl)c3F)cc3ccoc23)c1 (relative stereo) [Compound 376e, 7-(3-(aminomethyl)phenyl)-N-((trans)-2-((3-chloro-2-fluorobenzyl)carbamoyl)cyclopentyl)benzofuran-5-carboxamide]
< 1000 | NCc1cccc(-c2cc(COc3ccccc3CC(=O)O)cc3cc(C(N)c4ccccc4)oc23)c1 (single isomer, unassigned; (+)) [Compound 460d, (+)-2-(2-((2-(amino(phenyl)methyl)-7-(3-(aminomethyl)phenyl)benzofuran-5-yl)methoxy)phenyl)acetic acid]
< 1000 | CC(N)c1cc2cc(COc3ccccc3CC(=O)O)cc(-c3cccc(CN)c3)c2o1 (single isomer, unassigned; (-)) [Compound 442d, (−)-2-(2-((2-(1-aminoethyl)-7-(3-(aminomethyl)phenyl)benzofuran-5-yl)methoxy)phenyl)acetic acid]
< 1000 | NCc1cccc(-c2cc(C(=O)Nc3ccccc3CC(=O)O)cc3[nH]ncc23)c1 [Compound 7d, 2-(2-(4-(3-(aminomethyl)phenyl)-1H-indazole-6-carboxamido)phenyl)acetic acid]
< 1000 | NCc1cccc(-c2nc(COc3ccccc3CC(=O)O)nn3cccc23)c1 [Compound 8e, 2-(2-((4-(3-(aminomethyl)phenyl)pyrrolo[2,1-f][1,2,4]triazin-2-yl)methoxy)phenyl)acetic acid]
< 1000 | NCc1cccc(-c2cc(C(=O)Nc3ccccc3CC(=O)O)cc3[nH]ccc23)c1 [Compound 9d, 2-(2-(4-(3-(aminomethyl)phenyl)-1H-indole-6-carboxamido)phenyl)acetic acid]
< 1000 | NCc1cccc(-c2cc(C(=O)Nc3ccccc3CC(=O)O)cc3c2cnn3CC2CC2)c1 [Compound 10d, 2-(2-(4-(3-(aminomethyl)phenyl)-1-(cyclopropylmethyl)-1H-indazole-6-carboxamido)phenyl)acetic acid]
> 10000 | CCOC(=O)Cc1ccccc1NC(=O)c1cc(-c2cccc(CN)c2)c2cn(CC3CC3)nc2c1 [Compound 11a, ethyl 2-(2-(4-(3-(aminomethyl)phenyl)-2-(cyclopropylmethyl)-2H-indazole-6-carboxamido)phenyl)acetate]
